Series [1] addresses β2 adrenergic receptor (Homo sapiens (Human), UniProt P07550). The series can be described thus: cAMP Gs dynamic HTRF assay, β2 expressing CHO cells. It is filed as cell-based. In outline:
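Intracellular cAMP quantified by Eu-donor/d2-acceptor HTRF after 30 min compound exposure at 37° C in stimulation buffer with IBMX. Concentrations ran 10 μM top, 5-fold steps, 10 points. Cell lines: 1321N1 astrocytoma and CHO expressing β1 or β2; EC50 via four-parameter fit, relative efficacy against isoproterenol.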

Series [2] in a line: Plasma protein binding, equilibrium dialysis (human). Conditions: pH 7.4, equilibrium dialysis 6 hours, read-out: PPB (human), percent of unbound fraction. It is filed as in vitro ADME.
Series [3] can be described thus: Hepatocyte stability (human). Conditions: 0.5×10^6 viable cells/mL. The class given is in vitro ADME. As for the experimental part: 10 mM and 100 μM stock solutions of test compound(s) and a positive control were prepared in appropriate solvent (DMSO). In separate conical tubes, the 10 mM test compound and the positive control were diluted to 100 μM by combining 198 μL of 50% acetonitrile/50% water and 2 μL of 10 mM stock. The 100 μM test compound and the positive control were diluted to 30 μM by combining 140 μL of 50% acetonitrile/50% water and 60 μL of 100 μM stock solution. The 100 μM test compound and the positive control were diluted to 10 μM by combining 180 μL of 50% acetonitrile/50% water and 20 μL of 100 μM stock solution. The 100 μM test compound and the positive control were diluted to 3 μM by combining 194 μL of 50% acetonitrile/50% water and 6 μL of 100 μM stock solution.
Incubation medium (William's E Medium supplemented with GlutaMAX) and hepatocyte thawing medium was placed in a 37° C. water bath, and allowed to warm for at least 15 minutes prior to use. A vial of cryopreserved hepatocytes from storage was then removed, ensuring that the vial remains at cryogenic temperatures until thawing process ensues. Cells were thawed by placing the vial in a 37° C. water bath and gently shaking the vial for 2 minutes. After thawing was completed, the vial was sprayed with 70% ethanol and transferred to a biosafety cabinet.
A wide-bore pipette tip was used to transfer hepatocytes into 50 mL conical tube containing thawing medium. The 50 mL conical tube was placed into a centrifuge and spun at 100 g for 10 minutes. Upon completion of spin, the thawing medium was aspirated and the hepatocytes were resuspended in enough incubation medium to yield ˜1.5×10^6 cells/mL.
Using AOPI staining solution, cells were counted and the viable cell density was determined. Cells with poor viability (<75% viability) are not acceptable for use. […]
All calculations were carried out using Microsoft Excel. Peak areas were determined from extracted ion chromatograms. […]
The in vitro half-life (in vitro t1/2) was determined from the slope value: in vitro t1/2=0.693/k

[4] abbreviates: B2-AR, CHO-K cells, read-out: Average EC50 [Receptor subtype: B2-AR, Cell type: CHO-K].

Molecules are shown by their SMILES. Read-outs that look alike come from different tables or passages of the source.

Chain of β2 adrenergic receptor (P07550 whole entry, species assumed): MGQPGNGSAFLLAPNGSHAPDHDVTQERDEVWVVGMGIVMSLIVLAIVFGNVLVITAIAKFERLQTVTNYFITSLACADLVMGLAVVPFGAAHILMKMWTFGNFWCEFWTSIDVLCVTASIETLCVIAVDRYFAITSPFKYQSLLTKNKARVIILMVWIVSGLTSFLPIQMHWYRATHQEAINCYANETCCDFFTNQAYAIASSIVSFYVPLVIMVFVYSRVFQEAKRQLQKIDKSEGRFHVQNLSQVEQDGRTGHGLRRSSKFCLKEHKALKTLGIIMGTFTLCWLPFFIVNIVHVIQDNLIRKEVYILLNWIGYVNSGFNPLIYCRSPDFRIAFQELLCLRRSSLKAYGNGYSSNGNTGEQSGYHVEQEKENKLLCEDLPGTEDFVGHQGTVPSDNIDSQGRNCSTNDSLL

For `CC(C)(C)NC[C@H](O)c1cccc(C(F)(F)F)n1` [Compound 03-3], in series [1] (cAMP HTRF, read-out: β2 EC50), the EC50 is under 0.01 µM. Besides, the free fraction (fraction unbound) at 6 h, 1 μM in series [2] was found to be 0.89. For the same molecule, the “Hepatocyte stability, Human” value in series [3] is 0.9 μL/min/10^6 cells.

On to `CC(C)(C)NC[C@H](O)c1cccc(C#N)n1` [Compound 03-5, (S)-6-(2-(tert-butylamino)-1-hydroxyethyl)picolinonitrile], for which, in series [1] (B2-AR, CHO-K1 (HitHunter)), the “Average pEC50 [Receptor subtype: B2-AR; Cell type: CHO-K1 (HitHunter)]” value is recorded as “B-A”. Further, the EC50 in series [1] (setting [4]) was under 0.01 µM. Moreover, in series [2], the unbound share (fraction unbound) at 6 h, 1 μM is 1. Moreover, the “Hepatocyte stability, Human” value in series [3] is 0.36-0.59 μL/min/10^6 cells.

On to `Cc1ncccc1[C@@H](O)CNC(C)(C)C` [Compound 03-115], for which the EC50 in series [1] (B2-AR, CHO-K1 (HitHunter), read-out: Average pEC50 [Receptor subtype: B2-AR, Cell type: CHO-K1 (HitHunter)] (converted)) is 0.01 to 0.1 µM; in series [1] (setting [4]) it was 0.01 to 0.1 µM. In series [2], the unbound share (fraction unbound) at 6 h, 1 μM turned out to be 1. The “Hepatocyte stability, Human” value in series [3] is 0.32 μL/min/10^6 cells.

The term fraction unbound denotes the share of the substance not bound to proteins or other matrix.

The values are drawn from US10947196B2, “Beta adrenergic agonist and methods of using the same” (CURASEN THERAPEUTICS, INC., priority 2019, dated 2021).
